Tests used:
[1] = test system: Hepa1–6-Per2-luc hepatocarcinoma tumours; assay: Antitumour efficacy in Hepa1–6-bearing C57Bl/6 mice (Experiments 3 and 4); format: in vivo; conditions: for percentage tumour inhibition relative to control: Experiment 4, end
Description: (§1) Male CD1-Foxn1^nu or C57Bl/6 (B6) mice aged 5–10 weeks (Janvier, Le Genest St Isle, France) were housed in groups of three to four mice per cage in temperature-controlled (23 ± 1°C), ventilated (100 ± 10 l/min), and light-tight chronobiological animal facilities (Eurobioconcept, Bonneuil s/Marne, France). They were synchronized with an alternation of 12 h of light (L) and 12 h of darkness (D) (LD12:12), with light starting at 07:00, and had ad libitum access to food and water throughout all the experiments. In line with convention, onset of light and that of darkness are referred to as Zeitgeber time 0 (ZT0) and ZT12, respectively. After one or more weeks on this regimen and on the day prior to tumour inoculation, both flanks of each B6 mouse were shaved using clippers.
Mouse hepatocarcinoma (Hepa1–6, ATCC® CRL-1830™) was kindly provided by S. Dulong (INSERM U935, Villejuif, France), following their stable transfection with the Per2-luc [pLV7-Bsd-P(Per2)-dLuc] reporter constructs within the C5SYS ERASYSBIO+ project (FP7). Mouse Hepa1–6-Per2-luc cells were cultured in 15-cm Petri dishes until they reached 80% confluency. On the day of tumour inoculation, the cells were trypsinized and resuspended at a concentration of 10^6 cells/100 µl in PBS solution alone (Experiments 1 and 2) or with 1:1 MatriGel™ (Corning, Flintshire, UK) (Experiments 3–5) and kept on ice until injected.
(§2) The mice, aged 8–10 weeks, were anesthetized under isoflurane and Hepa1–6-Per2-luc cells were injected subcutaneously in both postero-lateral flanks of each mouse. Mice were then inspected and weighed daily until experiment completion. Tumour sites were inspected daily until tumours became palpable and amenable to daily measurements of perpendicular diameters using callipers. Measurements were always taken at the same circadian time.
(§3) Mean daily tumour weight per mouse was calculated as the average volume of the right and left flank tumours according to (L × W^2)/2, where L is the larger and W the smaller perpendicular diameter, and 1 cm^3 corresponds to 1 g. Mice with an estimated tumour weight exceeding 10% of their body weight or those in poor general condition or loosing >15% of their starting body weight were euthanized, in compliance with our Home Office Project Licence specifications approved by the Animals in Science Committee and Animal Welfare and Ethical Review Body.
(§4) Experiment 3 aimed at assessing the efficacy and tolerability of the more soluble formulation of FY26⋅Cl in Hepa1–6-bearing C57Bl/6 mice. The mice were randomized to receive vehicle or FY26⋅Cl, at a cumulative dose of 60 mg/kg. Treated mice received ip injections of 20 mg/kg of FY26⋅Cl at ZT6 12, 14, and 17 days after tumour inoculation. Control mice received ip vehicle on the same days.
(§5) Experiment 4 aimed at confirming efficacy and optimizing timing and scheduling of the same cumulative dose of 60 mg/kg of FY26⋅Cl. Mice were randomized to receive either vehicle or FY26⋅Cl as four injections of 15 mg/kg at ZT6 or ZT18 on days 11, 14, 17, and 21.
(§6) For Experiments 1 and 2, FY26⋅PF6 was diluted in the vehicle, composed of 1% Tween 80 (Sigma-Aldrich, Gillingham, UK), 5% DMSO (Corning, New York, USA) and 94% of 0.9% saline (Prep room, Life Sciences, University of Warwick) under laminar flow. FY26⋅PF6 concentration was confirmed with ICP-MS. For Experiments 3–5, using FY26⋅Cl, a stock solution of 50 mg/ml FY26⋅Cl was prepared in 0.9% saline on the day of injection and diluted as required; the vehicle consisted of 0.9% saline.
(§7) Body weight data were expressed as % body weight measured on the first treatment day. Tumour weights for individually treated mice were expressed as % of the median control values, in order to determine % inhibition. Mean and standard error or median and interquartiles were computed for the different treatment groups and experimental conditions, i.e. drug timing and day of assessment. Groups were compared using parametric or non-parametric ANOVAs, respectively.

[2] = test system: A2780 cells; assay: Apoptosis and ROS induction on exposure in A2780 cells; format: cell-based; conditions: data not shown
[3] = test system: A2780 ovarian cancer cells; assay: In vitro growth inhibition assay (SRB), A2780; format: cell-based; conditions: A2780, 24 h exposure, 72 h recovery
Description: Dulbecco's modified Eagle's medium (DMEM) cell culture media, penicillin/streptomycin, foetal bovine serum, L-glutamine, phosphate-buffered saline (PBS) solution, and trypsin/EDTA were all purchased from Thermo Fisher (Loughborough, UK). DMEM was supplemented with 10% foetal bovine serum, 1% penicillin/streptomycin, and 2 mM L-glutamine. Cancer cell lines (A2780 and A549) were purchased from the European Collection of Cell Cultures (Salisbury, UK). Cell cultures were grown in T-75 or T-175 culture flasks as adherent monolayers. The cells were passaged two to three times per week whenever confluence reached 80–90%, using 0.25% trypsin/EDTA. Cell cultures were stored in an incubator at 37°C with a 5% CO2 humidified atmosphere.
Five thousand A2780 or A549 cells were seeded per well in 96-well plates. The cells were pre-incubated in drug-free media at 37°C for 48 h before adding a range of concentrations (0.01–100 µM) of the complexes to be tested. Typically, the complex was dissolved in dimethyl sulfoxide (DMSO) at 2 mM concentration, and then diluted with cell culture medium to give a 100 µM stock solution with 5% (v/v) DMSO. […] Absorbance measurements of the solubilized dye (Thermo Scientific Multiskan FC with SkanIt software 4.1 for Windows using a 470 nm filter) allowed the determination of viable treated cells compared to untreated controls. […]

[4] = Tolerability (survival, body weight) in Hepa1–6-bearing C57Bl/6 mice (Experiments 3 and 4); format: in vivo
Description: as §1, §2, §3, §4, §5, §6, §7

## CN(C)c1ccc(N=Nc2ccccn2)cc1.Cc1ccc(C(C)C)cc1.[Cl-].[I-].[Os+2] [FY26⋅Cl]
[1]; Experiment 3, at completion, 20 mg/kg ip × 3 at ZT6
  median percentage tumour inhibition relative to controls: 76.5%
[1]; Experiment 3, day 20, 20 mg/kg ip × 3 at ZT6 (control 128.8 mg)
  median tumour weight, treatment group: 30.2 mg
[1]; Experiment 4, at completion, 15 mg/kg ip × 4, irrespective of dosing time
  median percentage tumour inhibition relative to controls: 42.6%
[1]; Experiment 4, day 23, 15 mg/kg ip × 4 (control 213.2 mg)
  median tumour weight, treatment groups ZT6 and ZT18: 122.3 mg
[1]; 15 mg/kg ip × 4 at ZT6
  percentage tumour inhibition relative to control: 12.5%
[1]; 15 mg/kg ip × 4 at ZT18
  percentage tumour inhibition relative to control: 66%
[1]; hepatocarcinoma-bearing mice, overall statement in discussion
  tumour inhibition as compared to controls: ~60%
[2]
  ROS induction: did induce an increase in ROS
  induction of apoptosis: did not induce apoptosis
[3]
  difference in anticancer (antiproliferative) activity between X = Cl and X = PF6: lack of any statistically significant difference
[4]; Experiment 4, 15 mg/kg ip × 4, ZT6 and ZT18
  treated mice alive at completion: 45%
[4]; after a cumulative dose of 60 mg/kg
  loss of body weight before treatment: ~10% (±3.2%)
